Data: ChEMBL document CHEMBL1133185, “Inhibition of clinically relevant mutant variants of HIV-1 by quinazolinone non-nucleoside reverse transcriptase inhibitors” (J Med Chem, 2000)

What was measured:
[1] = test system: Human immunodeficiency virus 1; experiment: Antiviral activity toward K103N mutant HIV-1 virus as protein binding adjusted (PB adj).; assay type: functional
[2] = test system: Human immunodeficiency virus 1; experiment: Antiviral activity against HIV-1 K103N mutant virus.; assay type: functional
[3] = test system: Human immunodeficiency virus 1; experiment: In vitro antiviral activity against HIV-1 (L100I).; assay type: functional
[4] = biological target: Human immunodeficiency virus type 1 reverse transcriptase (Human immunodeficiency virus 1, UniProt Q72547); experiment: Inhibition of HIV-1 reverse transcriptase.
[5] = test system: Human immunodeficiency virus 1; experiment: Antiviral activity was evaluated for the inhibition of wild-type RF strain of HIV-1 in an in vitro enzyme assay.; assay type: functional
[6] = biological target: Human immunodeficiency virus type 1 reverse transcriptase (Human immunodeficiency virus 1) (UniProt Q72547); details: Plasma
Description: Effect of human plasma protein binding on antiviral efficacy.

[7] = biological target: Human immunodeficiency virus type 1 reverse transcriptase (Human immunodeficiency virus 1) (UniProt Q72547); experiment: Compound was evaluated for the inhibition of HIV-1 Reverse transcriptase
[8] = test system: Human immunodeficiency virus 1; experiment: Compound was evaluated for antiviral activity against L100I mutant virus; assay type: functional
[9] = species on record: Homo sapiens; experiment: (§1) percentage of the free compound in human serum; assay type: cell-free
[10] = species on record: Homo sapiens; experiment: (§2) percentage of the free compound in tissue culture medium
[11] = test system: Human immunodeficiency virus 1; experiment: Plasma Potency against Mutant HIV-1 K103N; assay type: functional; details: Human immunodeficiency virus 1, Plasma
[12] = test system: Human immunodeficiency virus 1; experiment: Potency against Mutant HIV-1 K103N; assay type: functional
[13] = test system: Human immunodeficiency virus 1; experiment: Calculated Potency against Mutant HIV-1 K103N; assay type: functional
[14] = test system: Human immunodeficiency virus 1; experiment: Calculated Potency against Mutant HIV-1 sL100I; assay type: functional
[15] = test system: Human immunodeficiency virus 1; experiment: Plasma Potency against Mutant HIV-1 sL100I; assay type: functional; details: Human immunodeficiency virus 1, Plasma
[16] = test system: Human immunodeficiency virus 1; experiment: Potency against Mutant HIV-1 sL100I; assay type: functional
[17] = test system: MT2; experiment: Antiviral activity against E, Zidovudine resistant clinical strain of HIV in MT-2 cells by yield assay; assay type: functional; details: Homo sapiens
[18] = test system: MT2; experiment: Antiviral activity against HIV-2 in MT-2 cells by yield assay; assay type: functional; details: Homo sapiens
[19] = test system: MT2; experiment: Antiviral activity against RF strain of HIV in MT-2 cells by RNA assay; assay type: functional; details: Homo sapiens
[20] = test system: MT2; experiment: Antiviral activity against RF strain of HIV in MT-2 cells by yield assay; assay type: functional; details: Homo sapiens
[21] = test system: MT2; experiment: Protein Binding was evaluated by PB shift in MT-2 by RNA assay; assay type: functional; details: Homo sapiens
[22] = test system: Human immunodeficiency virus 1; experiment: Calculated Potency against Mutant HIV-1 sV179D/L100I/Y181C; assay type: functional
[23] = test system: Human immunodeficiency virus 1; experiment: Plasma Potency against Mutant HIV-1 sV179D/L100I/Y181C; assay type: functional
[24] = test system: Human immunodeficiency virus 1; experiment: Potency against Mutant HIV-1 sV179D/L100I/Y181C; assay type: functional
[25] = test system: Human immunodeficiency virus 1; experiment: Plasma antiviral activity was evaluated for RF strain of HIV-1; assay type: functional
[26] = test system: Human immunodeficiency virus 1; experiment: Compound was evaluated for the inhibition of wilde-type RF strain of HIV-1; assay type: functional
[27] = test system: Human immunodeficiency virus 1; experiment: Antiviral activity against Thai 9466, a wild-type clinical strain of HIV in PBMC by P24 assay; assay type: functional
[28] = test system: Human immunodeficiency virus 1; experiment: Antiviral activity against A018C, Zidovudine resistant clinical strain of HIV in PBMC by P24 assay; assay type: functional
[29] = test system: Human immunodeficiency virus 1; experiment: Compound was evaluated for the inhibition of wide-type RF strain of HIV-1; assay type: functional
[30] = species on record: Homo sapiens; experiment: as §1; assay type: functional
[31] = species on record: Homo sapiens; experiment: as §2; assay type: functional

Compound	IC90 [1]	IC90 ([2]; Human immunodeficiency virus 1)	IC90 [3]	IC50 [4]	IC90 [5]	IC90 [6]	also measured
COc1ccc2c(c1)[C@@](C#Cc1ccccn1)(C(F)(F)F)NC(=O)N2	5880 nM	338 nM	98 nM	237 nM	8.1 nM	138 nM	
O=C1Nc2ccc(Cl)cc2[C@@](C#CC2CC2)(C(F)(F)F)N1 (stereo in doubt; 14) [listing 1 of 2 here]						41 nM	
O=C1Nc2ccc(Cl)cc2[C@@](C#CC2CC2)(C(F)(F)F)N1 (stereo in doubt)							IC90 [7]: 31 nM
CCC#C[C@]1(C(F)(F)F)NC(=O)Nc2ccc(F)cc21	710 nM	71 nM		54 nM	2.5 nM	25 nM	IC90 [8]: 74 nM
O=C1Nc2cccc(Cl)c2[C@@](C#CC2CC2)(C(F)(F)F)N1	441 nM	63 nM	70 nM	72 nM	2.5 nM	18 nM	
COc1ccc2c(c1)[C@@](C#CC1CC1)(C(F)(F)F)NC(=O)N2	396 nM	40 nM	46 nM	124 nM	2.9 nM	29 nM	
O=C1Nc2ccc(Cl)cc2[C@@](C#CC2CC2)(C(F)(F)F)N1 (stereo in doubt; 14) [listing 2 of 2 here]	336 nM		18 nM	111 nM	2.7 nM		IC90 [2]: 22 nM
O=C1Nc2ccc(F)c(F)c2[C@@](C#Cc2ccccn2)(C(F)(F)F)N1	1310 nM	109 nM	37 nM	68 nM	2 nM	24 nM	
CC(C)C#C[C@]1(C(F)(F)F)NC(=O)Nc2ccc(F)c(Cl)c21	74 nM	15 nM	13 nM	78 nM	3 nM	15 nM	
CCC#C[C@]1(C(F)(F)F)NC(=O)Nc2ccc(Cl)cc21	826 nM	26 nM		110 nM	3.3 nM	83 nM	
O=C1Nc2ccc(F)cc2[C@@](C#Cc2ccccc2)(C(F)(F)F)N1	3220 nM	322 nM	677 nM	143 nM	6.6 nM	66 nM	
O=C1Nc2ccc(F)c(F)c2[C@@](C#CC2CC2)(C(F)(F)F)N1 (stereo in doubt) [listing 1 of 2 here]							Free [9]: 2.8%; Free [10]: 37%; IC90 [7]: 18 nM
O=C1Nc2ccc(F)c(F)c2[C@@](/C=C/C2CC2)(C(F)(F)F)N1							Free [9]: 3%; Free [10]: 53%; IC90 [11]: 370 nM; IC90 [12]: 21 nM; IC90 [13]: 11 nM; IC90 [14]: 3.1 nM; IC90 [15]: 100 nM; IC90 [16]: 5.9 nM; IC90 [17]: 2.9 nM; IC90 [18]: > 2800 nM; IC90 [19]: 2 nM; IC90 [20]: 2.7 nM; IC90 [21]: 3.5 nM; IC90 [22]: 130 nM; IC90 [23]: 4300 nM; IC90 [24]: 250 nM; IC90 [25]: 33 nM
O=C1Nc2ccc(F)c(F)c2[C@@](C#Cc2ccccc2)(C(F)(F)F)N1	1340 nM	191 nM	256 nM	181 nM	6.2 nM	43 nM	
O=C1Nc2ccc(Cl)cc2[C@@](C#Cc2ccccc2)(C(F)(F)F)N1	3000 nM	250 nM	365 nM	277 nM	7.1 nM	86 nM	
CC(C)Nc1cccnc1N1CCN(C(=O)c2cc3cc(NS(C)(=O)=O)ccc3[nH]2)CC1 [DELAVIRDINE]	38000 nM	1000 nM			37 nM		
O=C1Nc2ccc(Cl)c(Cl)c2[C@@](C#CC2CC2)(C(F)(F)F)N1	196 nM	18 nM		166 nM	8 nM	88 nM	
O=C1Nc2cccc(F)c2[C@@](C#CC2CC2)(C(F)(F)F)N1	917 nM	89 nM	108 nM	62 nM	1.4 nM	14 nM	
CC(C)C#C[C@]1(C(F)(F)F)NC(=O)Nc2ccc(F)c(F)c21 (stereo in doubt; 37) [listing 1 of 2 here]							IC90 [2]: 9 nM; IC90 [26]: 1.6 nM
COc1ccc2c(c1)[C@@](C#Cc1ccccc1)(C(F)(F)F)NC(=O)N2	3590 nM	283 nM	462 nM	219 nM	3.2 nM	42 nM	

Compound	IC90 [1]	IC90 ([2]; Human immunodeficiency virus 1)	IC90 [3]	IC50 [4]	IC90 [5]	IC90 [6]	also measured
O=C1Nc2ccc(F)c(F)c2[C@@](C#CC2CC2)(C(F)(F)F)N1 (stereo in doubt; 13) [listing 1 of 2 here]						19 nM	
O=C1Nc2ccc(F)c(F)c2[C@@](C#CC2CC2)(C(F)(F)F)N1 (stereo in doubt) [listing 2 of 2 here]							IC90 [11]: 140 nM; IC90 [12]: 11 nM; IC90 [13]: 4 nM; IC90 [14]: 3 nM; IC90 [2]: 11 nM; IC90 [15]: 110 nM; IC90 [16]: 8 nM; IC90 [17]: 1.7 nM; IC90 [18]: > 950 nM; IC90 [19]: 1.3 nM; IC90 [20]: 2.3 nM; IC90 [21]: 6.9 nM; IC90 [22]: 41 nM; IC90 [23]: 1460 nM; IC90 [24]: 110 nM; IC90 [27]: 1.9 nM; IC90 [28]: 1.6 nM; IC90 [29]: 1.3 nM; IC90 [25]: 18 nM
CC(C)C#C[C@]1(C(F)(F)F)NC(=O)Nc2ccc(Cl)cc21	653 nM	22 nM	28 nM	281 nM	3 nM	90 nM	
CC(C)C#C[C@]1(C(F)(F)F)NC(=O)Nc2ccc(F)c(F)c21 (stereo in doubt; 20) [listing 1 of 2 here]						21 nM	
O=C1Nc2ccc(F)c(Cl)c2[C@@](C#CC2CC2)(C(F)(F)F)N1	178 nM	18 nM	16 nM	59 nM	2.7 nM	27 nM	
COc1ccc2c(c1)[C@@](C#CC(C)C)(C(F)(F)F)NC(=O)N2	599 nM	56 nM	28 nM	401 nM	3.8 nM	42 nM	
O=C1Nc2ccc(Cl)c(F)c2[C@@](C#CC2CC2)(C(F)(F)F)N1	151 nM	18 nM		102 nM	4.8 nM	40 nM	
O=C1Nc2ccc(F)c(F)c2[C@](C#CC2CC2)(C(F)(F)F)N1							IC90 [26]: 101 nM; IC90 [7]: 6600 nM
CC(C)C#C[C@]1(C(F)(F)F)NC(=O)Nc2ccc(F)cc21	891 nM	27 nM	17 nM	39 nM	2.6 nM	86 nM	
O=C1Nc2ccc(F)cc2[C@@](C#CC2CC2)(C(F)(F)F)N1	566 nM	48 nM	29 nM	50 nM	2 nM	24 nM	
O=C1Nc2ccc(F)cc2[C@@](C#Cc2ccccn2)(C(F)(F)F)N1	3140 nM	483 nM	255 nM	126 nM	5 nM	33 nM	
Cc1ccnc2c1NC(=O)c1cccnc1N2C1CC1 [NEVIRAPINE]	10200 nM	5100 nM			50 nM	100 nM	
O=C1Nc2ccc(Cl)cc2[C@@](/C=C/C2CC2)(C(F)(F)F)N1							IC90 [11]: 550 nM; IC90 [12]: 27 nM; IC90 [13]: 11 nM; IC90 [14]: 4.3 nM; IC90 [15]: 220 nM; IC90 [16]: 11 nM; IC90 [17]: 1.3 nM; IC90 [18]: > 2800 nM; IC90 [19]: 2.1 nM; IC90 [20]: 1.9 nM; IC90 [21]: 3.7 nM; IC90 [22]: 120 nM; IC90 [23]: 6000 nM; IC90 [24]: 320 nM; IC90 [27]: 0.9 nM; IC90 [25]: 40 nM; Free [30]: 2%; Free [31]: 39%
CC(C)C#C[C@]1(C(F)(F)F)NC(=O)Nc2ccc(F)c(F)c21 (stereo in doubt; 20) [listing 2 of 2 here]	139 nM	14 nM	10 nM	91 nM	2.1 nM		
CC(C)C#C[C@@]1(C(F)(F)F)NC(=O)Nc2ccc(F)c(F)c21							IC90 [26]: 229 nM; IC90 [7]: 1520 nM
O=C1Nc2ccc(Cl)cc2[C@@](C#Cc2ccccn2)(C(F)(F)F)N1	3730 nM	160 nM	64 nM	129 nM	3.4 nM	79 nM	
O=C1Nc2ccc(Cl)cc2[C@](C#CC2CC2)(C(F)(F)F)N1							IC90 [26]: 34000 nM; IC90 [7]: 267 nM
O=C1Nc2ccc(F)c(F)c2[C@@](C#CC2CC2)(C(F)(F)F)N1 (stereo in doubt; 13) [listing 2 of 2 here]	119 nM	13 nM	12 nM	74 nM	2.1 nM		
CC(C)C#C[C@]1(C(F)(F)F)NC(=O)Nc2ccc(F)c(F)c21 (stereo in doubt; 37) [listing 2 of 2 here]							IC90 [7]: 15 nM
